Laboratory results from PMC4573335 (Biochemistry, 2015).

Molecular target: T1, hALAS2 (human erythroid-specific 5-aminolevulinate synthase) (Homo sapiens, UniProt P22557)
T1 sequence (P22557 80-587): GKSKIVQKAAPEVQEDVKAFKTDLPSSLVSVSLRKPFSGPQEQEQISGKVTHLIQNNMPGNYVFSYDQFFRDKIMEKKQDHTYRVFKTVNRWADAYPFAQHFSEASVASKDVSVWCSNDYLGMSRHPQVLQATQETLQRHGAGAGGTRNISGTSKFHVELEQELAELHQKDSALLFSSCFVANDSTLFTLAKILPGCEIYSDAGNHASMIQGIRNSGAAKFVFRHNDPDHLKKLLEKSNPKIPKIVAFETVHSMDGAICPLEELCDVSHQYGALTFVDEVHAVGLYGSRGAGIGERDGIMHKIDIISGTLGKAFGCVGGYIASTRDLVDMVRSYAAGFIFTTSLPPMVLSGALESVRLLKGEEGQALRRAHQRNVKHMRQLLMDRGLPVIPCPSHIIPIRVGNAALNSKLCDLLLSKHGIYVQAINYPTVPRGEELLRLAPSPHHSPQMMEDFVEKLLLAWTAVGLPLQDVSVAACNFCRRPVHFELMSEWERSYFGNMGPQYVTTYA
Assay: absorption spectroscopy, A420/A330 ratio
Type: binding
Conditions: PLP holoenzyme

NCC(=O)O [glycine]
absorption spectroscopy, A420/A330 ratio (PLP-glycine aldimine): In all cases, the A420/A330 ratio was increased upon reaction with glycine
